According to patent US8178506B2, “Oligomeric compounds and compositions for use in modulation of small non-coding RNAs” (Regulus Therapeutics Inc., priority 2003, dated 2012):
In the oligonucleotide strings, read from the 5' end, every base follows the letter of its sugar. An asterisk marks phosphorothioate; unmarked linkages are phosphodiester. Other units and linkages are bracketed, terminal groups are in braces. A string of capitals states the bases alone. e = 2'-O-(2-methoxyethyl) (MOE); [5mC] = 5-methylcytosine

Assays:
Type in all cases: cell-based, human
Glut4 = Glut4 mRNA expression in adipocytes (real-time PCR)
aP2 = aP2 mRNA expression in adipocytes (real-time PCR); conditions: for aP2 mRNA: Table 75
PPARγ = PPARγ mRNA expression in adipocytes (real-time PCR)
adipocytes = assay: Triglyceride accumulation assay in adipocytes
HSL = HSL mRNA expression in adipocytes (real-time PCR)
[1] = Table 18, differentiating adipocytes, control = treatment with ISIS 342673
[2] = differentiating adipocytes transfected with oligomeric compound, Table 75
[3] = differentiating adipocytes transfected with oligomeric compound
[4] = Table 17, differentiating adipocytes, control = treatment with ISIS 342673

Substance | GLUT4 mRNA (Glut4; [1]) | GLUT4 mRNA (Glut4; [2]) | AP2 mRNA (aP2; [1]) | aP2 mRNA (aP2; [3]) | PPAR gamma mRNA (PPARγ; [1]) | PPAR gamma mRNA (PPARγ; [2]) | TG (triglyceride accumulation) (adipocytes; [1]) | TG (triglyceride accumulation) (adipocytes; [2]) | HSL mRNA (HSL; [1]) | HSL mRNA (HSL; [2]) | GLUT4 mRNA (Glut4; [3]) | AP2 mRNA (aP2; [3]) | PPAR gamma mRNA (PPARγ; [3]) | TG (triglyceride accumulation) (adipocytes; [3]) | HSL mRNA (HSL; [3]) | GLUT4 mRNA (Glut4; [4]) | AP2 mRNA (aP2; [4]) | PPAR gamma mRNA (PPARγ; [4]) | TG (triglyceride accumulation) (adipocytes; [4]) | HSL mRNA (HSL; [4])
327912 (antisense eA*eA*e[5mC]*eT*eA*eT*eA*e[5mC]*eA*eA*eT*e[5mC]*eT*eA*e[5mC]*eT*eA*e[5mC]*e[5mC]*eT*e[5mC]*eA) [compound 327912] | 89.0 percentage of control | 79 percentage of untreated control (UTC) | 90.1 percentage of control | 101 percentage of untreated control (UTC) | 76.9 percentage of control | 78 percentage of untreated control (UTC) | 107.4 percentage of control | 112 percentage of untreated control (UTC) | 90.6 percentage of control | 95 percentage of untreated control (UTC) |  |  |  |  |  |  |  |  |  | 
328105 (antisense e[5mC]*e[5mC]*eT*e[5mC]*eA*eA*eT*eT*eA*eT*eT*eG*eG*eA*eA*eA*eT*e[5mC]*eA*e[5mC]*eA) [compound 328105] | 94.2 percentage of control | 75 percentage of untreated control (UTC) | 88.2 percentage of control | 102 percentage of untreated control (UTC) | 93.3 percentage of control | 85 percentage of untreated control (UTC) | 93.1 percentage of control | 82 percentage of untreated control (UTC) | 94.2 percentage of control | 95 percentage of untreated control (UTC) |  |  |  |  |  |  |  |  |  | 
328110 (antisense eG*eA*eT*eA*eA*eA*eG*e[5mC]*e[5mC]*eA*eA*eT*eA*eA*eA*e[5mC]*eT*eG*eT*e[5mC]*eA) [compound 328110] | 104.7 percentage of control | 77 percentage of untreated control (UTC) | 93.3 percentage of control | 89 percentage of untreated control (UTC) | 91.2 percentage of control | 80 percentage of untreated control (UTC) | 97.7 percentage of control | 96 percentage of untreated control (UTC) | 91.0 percentage of control | 84 percentage of untreated control (UTC) |  |  |  |  |  |  |  |  |  | 
328111 (antisense eT*e[5mC]*e[5mC]*eG*eA*eG*eT*e[5mC]*eG*eG*eA*eG*eG*eA*eG*eG*eA*eG*eG*eA*eA) [compound 328111] | 59.6 percentage of control | 50 percentage of untreated control (UTC) | 71.5 percentage of control | 79 percentage of untreated control (UTC) | 74.9 percentage of control | 65 percentage of untreated control (UTC) | 101.9 percentage of control | 65 percentage of untreated control (UTC) | 69.5 percentage of control | 77 percentage of untreated control (UTC) |  |  |  |  |  |  |  |  |  | 
328114 (antisense eA*eA*eT*e[5mC]*eT*e[5mC]*eA*eT*eT*eT*eT*e[5mC]*eA*eT*eA*e[5mC]*eT*eT*eG*e[5mC]*eA) [compound 328114] | 114.9 percentage of control |  | 94.4 percentage of control |  | 89.3 percentage of control |  | 117.3 percentage of control |  | 93.3 percentage of control |  | 116 percentage of untreated control (UTC) | 123 percentage of untreated control (UTC) | 106 percentage of untreated control (UTC) | 110 percentage of untreated control (UTC) | 134 percentage of untreated control (UTC) |  |  |  |  | 
328115 (antisense eA*eG*eA*eA*eG*eG*eT*eG*eG*eG*eG*eA*eG*e[5mC]*eA*eG*e[5mC]*eG*eT*e[5mC]*eA) [compound 328115] | 132.0 percentage of control | 84 percentage of untreated control (UTC) | 80.0 percentage of control | 74 percentage of untreated control (UTC) | 95.8 percentage of control | 80 percentage of untreated control (UTC) | 108.7 percentage of control | 53 percentage of untreated control (UTC) | 89.0 percentage of control | 75 percentage of untreated control (UTC) |  |  |  |  |  |  |  |  |  | 
328117 (antisense eT*e[5mC]*e[5mC]*eA*e[5mC]*eA*eA*eA*eG*e[5mC]*eT*eG*eA*eA*e[5mC]*eA*eT*eG*eT*e[5mC]*eT) [compound 328117] |  | 13 percentage of untreated control (UTC) |  | 28 percentage of untreated control (UTC) |  | 42 percentage of untreated control (UTC) |  | 16 percentage of untreated control (UTC) |  | 18 percentage of untreated control (UTC) |  |  |  |  |  | 68.1 percentage of control | 65.4 percentage of control | 64.1 percentage of control | 55.0 percentage of control | 61.7 percentage of control
328119 (antisense eA*eA*eT*eA*eA*e[5mC]*eA*e[5mC]*eA*e[5mC]*eA*eT*e[5mC]*e[5mC]*eA*e[5mC]*eT*eT*eT*eA*eA) [compound 328119] |  | 104 percentage of untreated control (UTC) |  | 119 percentage of untreated control (UTC) |  | 102 percentage of untreated control (UTC) |  | 109 percentage of untreated control (UTC) |  | 101 percentage of untreated control (UTC) |  |  |  |  |  | 95.2 percentage of control | 99.9 percentage of control | 82.7 percentage of control | 90.2 percentage of control | 98.5 percentage of control
328123 (antisense eT*eT*eA*e[5mC]*eA*eG*eG*eT*eG*e[5mC]*eT*eG*e[5mC]*eA*eA*e[5mC]*eT*eG*eG*eA*eA) [compound 328123] |  | 129 percentage of untreated control (UTC) |  | 119 percentage of untreated control (UTC) |  | 88 percentage of untreated control (UTC) |  | 54 percentage of untreated control (UTC) |  | 91 percentage of untreated control (UTC) |  |  |  |  |  | 162.4 percentage of control | 106.7 percentage of control | 74.7 percentage of control | 120.8 percentage of control | 85.4 percentage of control
328125 (antisense eT*eA*eT*eG*eA*eA*eA*eT*eG*e[5mC]*e[5mC]*eA*eG*eA*eG*e[5mC]*eT*eG*e[5mC]*e[5mC]*eA) [compound 328125] |  | 65 percentage of untreated control (UTC) |  | 75 percentage of untreated control (UTC) |  | 68 percentage of untreated control (UTC) |  | 44 percentage of untreated control (UTC) |  | 48 percentage of untreated control (UTC) |  |  |  |  |  | 99.5 percentage of control | 86.9 percentage of control | 76.1 percentage of control | 81.7 percentage of control | 75.8 percentage of control
